Experiment [1] deals with T1, Caspase-3 (Homo sapiens) (UniProt P42574).
T1 sequence (whole entry): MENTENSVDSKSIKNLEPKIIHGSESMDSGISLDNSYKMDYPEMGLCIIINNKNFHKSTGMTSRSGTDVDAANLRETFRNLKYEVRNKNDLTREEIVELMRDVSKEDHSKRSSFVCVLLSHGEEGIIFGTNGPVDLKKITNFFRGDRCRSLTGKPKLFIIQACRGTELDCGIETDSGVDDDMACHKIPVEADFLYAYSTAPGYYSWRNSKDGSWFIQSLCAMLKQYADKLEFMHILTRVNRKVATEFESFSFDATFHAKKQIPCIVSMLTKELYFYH
Nature of the experiment: Inhibition of CPP32 peptidase activity at 50 nM.

Experiment [2] addresses T1, Caspase-3 (Homo sapiens). Nature of the experiment: Inhibition of CPP32 peptidase activity at 5 ug/mL.
The next experiment is filed under the species Bos taurus. The experiment is described as follows: Inhibition of bovine brain calcineurin phosphatase activity at 5 ug/mL.
Experiment [3] is described as follows: Inhibition of bovine brain calcineurin phosphatase activity. Also on record: species or system Bos taurus.
For another experiment, the system named is A549. The experiment is described as follows: Cytotoxicity against human A549 cells. The experiment is classed as functional, cell-based.
The next experiment has as its system P388. Nature of the experiment: Cytotoxicity against mouse P388 cells. The class given is functional, cell-based.

Converted amounts (≈) assume the structure as drawn. The source made the active and inactive calls. The rule behind the calls is not given here.

On to `CC(C)[C@H](NC(=O)[C@H](CCC(=O)O)NC(=O)[C@@H](N)CC(=O)O)C(=O)N[C@H](C=O)CC(=O)O`, for which, at Caspase-3 (Homo sapiens) [1], the inhibition was determined as 90%.
Take `O=C1C(Br)=CC2(C=C1Br)CCNC1=C2C2=NCCc3c[nH]c(c32)C1=O`: the result at Caspase-3 (Homo sapiens) [2] and in the experiment listed under Bos taurus was inactive.
As to `Cn1cc2c3c1C(=O)C1=C(C3=NCC2)C2(C=C(Br)C(=O)C(Br)=C2)CCN1` [DISCORHABDIN], the IC50 came out at 0.55 µg/mL (≈ 1.15 µM) in experiment [3], 0.41 µg/mL (≈ 0.859 µM) in the experiment with A549 and 0.025 µg/mL (≈ 0.0524 µM) in the experiment with P388.

Broadly, the inhibition is the share of the control response that was lost under treatment. Low readings indicate a response near the control, high ones a response far below the control. The IC50 is the concentration needed to halve the response being measured.
